From patent US12723063B2, “GIPR-agonist compounds” (Eli Lilly and Company, priority 2019, dated 2026)
*1 amine or outer side, *2 acyl side, *3 side chain or, on linkers, in order; H or OH if unused. Where a SMILES comes first, the peptide text is derived from it. Side-chain parts run from the residue outwards. [ ]: non-standard residue; d: D form. The star is where a group is joined. C20 diacid = O=C(O)CCCCCCCCCCCCCCCCCCC(=O)*; C18 diacid = O=C(O)CCCCCCCCCCCCCCCCC(=O)*; γGlu = O=C(O)[C@H](CCC(=O)[*:2])N[*:1]; αMeL = CC(C)C[C@](C)(N)C(=O)O; Orn = NCCC[C@H](N)C(=O)O; AEEA = NCCOCCOCC(=O)O; Aib = CC(C)(N)C(=O)O

Tests used:
human GLP-1R = target: T1, human GLP-1R (Homo sapiens, UniProt P43220); assay: [125I]-GLP-1 binding, SPA with WGA beads, 0.1% bacitracin; conditions: geometric mean, read-out: hGLP1R Ki
T1 construct: expressed in transfected cells; crude membranes
T1 sequence (P43220 24-463): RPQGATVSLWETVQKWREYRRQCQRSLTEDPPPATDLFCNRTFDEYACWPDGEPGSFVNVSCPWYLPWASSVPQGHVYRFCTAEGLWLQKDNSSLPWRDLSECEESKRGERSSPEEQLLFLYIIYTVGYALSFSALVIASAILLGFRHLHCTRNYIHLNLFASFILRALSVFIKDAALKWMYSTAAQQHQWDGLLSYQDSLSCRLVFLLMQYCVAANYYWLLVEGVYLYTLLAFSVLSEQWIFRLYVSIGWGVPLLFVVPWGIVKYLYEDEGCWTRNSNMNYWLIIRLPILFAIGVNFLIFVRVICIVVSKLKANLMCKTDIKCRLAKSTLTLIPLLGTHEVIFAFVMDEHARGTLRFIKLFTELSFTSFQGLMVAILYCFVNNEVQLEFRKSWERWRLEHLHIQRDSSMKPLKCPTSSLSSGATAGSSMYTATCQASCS
How it was run: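 Binding buffer was 25 mM HEPES pH 7.4 with 2.5 mM CaCl2, 1 mM MgCl2, 0.1% (w/v) bacitracin, 0.003% Tween-20 and EDTA-free protease inhibitors. Four-parameter regression gave IC50, converted to Ki (geometric mean, SEM, n independent days).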

human GcgR = target: T2, human GcgR (Homo sapiens, UniProt P47871); assay: [125I]-Glucagon binding, SPA with WGA beads, 0.1% bacitracin; conditions: geometric mean, read-out: hGcgR Ki
T2 construct: expressed in transfected cells; crude membranes
T2 sequence (P47871 26-477): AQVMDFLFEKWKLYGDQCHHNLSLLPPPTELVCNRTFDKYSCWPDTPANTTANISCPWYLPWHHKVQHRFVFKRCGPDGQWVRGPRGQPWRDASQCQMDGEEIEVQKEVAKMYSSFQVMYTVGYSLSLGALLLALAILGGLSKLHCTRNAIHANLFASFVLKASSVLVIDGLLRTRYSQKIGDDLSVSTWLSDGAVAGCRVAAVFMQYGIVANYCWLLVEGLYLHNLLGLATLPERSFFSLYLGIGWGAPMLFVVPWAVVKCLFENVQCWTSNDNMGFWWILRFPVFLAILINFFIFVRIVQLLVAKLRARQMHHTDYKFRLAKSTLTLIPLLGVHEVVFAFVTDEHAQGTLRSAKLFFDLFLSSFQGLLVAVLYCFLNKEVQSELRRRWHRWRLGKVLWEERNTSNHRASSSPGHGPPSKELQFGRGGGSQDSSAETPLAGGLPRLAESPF
How it was run: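 SPA competition binding with WGA beads on crude membranes from HEK293 cells stably expressing hGcgR. Buffer: 25 mM HEPES pH 7.4, 2.5 mM CaCl2, 1 mM MgCl2, 0.1% bacitracin, 0.003% Tween-20; 10-point 3-fold dilutions, NSB with 1 μM Gcg.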

CC[C@H](C)[C@H](NC(=O)[C@H](CCCN)NC(=O)[C@H](CC(=O)O)NC(=O)[C@H](CC(C)C)NC(=O)[C@](C)(CC(C)C)NC(=O)[C@@H](NC(=O)[C@H](CO)NC(=O)[C@H](Cc1ccc(O)cc1)NC(=O)[C@H](CC(=O)O)NC(=O)[C@H](CO)NC(=O)[C@@H](NC(=O)[C@H](Cc1ccccc1)NC(=O)[C@@H](NC(=O)CNC(=O)[C@H](CCC(=O)O)NC(=O)C(C)(C)NC(=O)[C@@H](N)Cc1ccc(O)cc1)[C@@H](C)O)[C@@H](C)CC)[C@@H](C)CC)C(=O)N[C@@H](Cc1c[nH]cn1)C(=O)N[C@@H](CCC(N)=O)C(=O)NC(C)(C)C(=O)N[C@@H](CC(=O)O)C(=O)N[C@@H](Cc1ccccc1)C(=O)N[C@H](C(=O)N[C@H](CCC(=O)O)C(=O)N[C@@H](Cc1ccc(O)cc1)C(=O)N[C@@H](CCCCNC(=O)COCCOCCNC(=O)COCCOCCNC(=O)CC[C@H](NC(=O)CCCCCCCCCCCCCCCCCCC(=O)O)C(=O)O)C(=O)N[C@@H](CC(C)C)C(=O)N[C@@H](CCC(=O)O)C(=O)NCC(=O)NCC(=O)N1CCC[C@H]1C(=O)N[C@@H](CO)C(=O)N[C@@H](CO)C(=O)NCC(=O)N[C@@H](C)C(=O)N1CCC[C@H]1C(=O)N1CCC[C@H]1C(=O)N1CCC[C@H]1C(=O)N[C@@H](CO)C(N)=O)C(C)C [Example 101]
Ki (human GLP-1R): > 913 nM | Ki (human GcgR): > 961 nM

CC[C@H](C)[C@H](NC(=O)[C@H](CCCN)NC(=O)[C@H](CC(=O)O)NC(=O)[C@H](CC(C)C)NC(=O)[C@](C)(CC(C)C)NC(=O)[C@@H](NC(=O)[C@H](CO)NC(=O)[C@H](Cc1ccc(O)cc1)NC(=O)[C@H](CC(=O)O)NC(=O)[C@H](CO)NC(=O)[C@@H](NC(=O)[C@H](Cc1ccccc1)NC(=O)[C@@H](NC(=O)CNC(=O)[C@H](CCC(=O)O)NC(=O)C(C)(C)NC(=O)[C@@H](N)Cc1ccc(O)cc1)[C@@H](C)O)[C@@H](C)CC)[C@@H](C)CC)C(=O)N[C@@H](Cc1c[nH]cn1)C(=O)N[C@@H](CCC(N)=O)C(=O)NC(C)(C)C(=O)N[C@@H](CCC(=O)O)C(=O)N[C@@H](Cc1ccccc1)C(=O)N[C@H](C(=O)N[C@H](CCC(=O)O)C(=O)N[C@@H](Cc1ccc(O)cc1)C(=O)N[C@@H](CCCCNC(=O)COCCOCCNC(=O)COCCOCCNC(=O)CC[C@H](NC(=O)CCCCCCCCCCCCCCCCCCC(=O)O)C(=O)O)C(=O)N[C@@H](CC(C)C)C(=O)N[C@@H](CCC(=O)O)C(=O)NCC(=O)NCC(=O)N1CCC[C@H]1C(=O)N[C@@H](CO)C(=O)N[C@@H](CO)C(=O)NCC(=O)N[C@@H](C)C(=O)N1CCC[C@H]1C(=O)N1CCC[C@H]1C(=O)N1CCC[C@H]1C(=O)N[C@@H](CO)C(N)=O)C(C)C [Example 102] (H-Y[Aib]EGTFISDYSI[αMeL]LD[Orn]IHQ[Aib]EFV[dE]YK([AEEA-AEEA-γGlu-C20 diacid])LEGGPSSGAPPPS-NH2)
Ki (human GLP-1R): > 913 nM | Ki (human GcgR): > 961 nM

CC[C@H](C)[C@H](NC(=O)[C@H](CCCN)NC(=O)[C@H](CC(=O)O)NC(=O)[C@H](CC(C)C)NC(=O)[C@](C)(CC(C)C)NC(=O)[C@@H](NC(=O)[C@H](CO)NC(=O)[C@H](Cc1ccc(O)cc1)NC(=O)[C@H](CC(=O)O)NC(=O)[C@H](CO)NC(=O)[C@@H](NC(=O)[C@H](Cc1ccccc1)NC(=O)[C@@H](NC(=O)CNC(=O)[C@H](CCC(=O)O)NC(=O)C(C)(C)NC(=O)[C@@H](N)Cc1ccc(O)cc1)[C@@H](C)O)[C@@H](C)CC)[C@@H](C)CC)C(=O)N[C@@H](Cc1c[nH]cn1)C(=O)N[C@@H](CCC(N)=O)C(=O)NC(C)(C)C(=O)N[C@@H](CC(=O)O)C(=O)N[C@@H](Cc1ccccc1)C(=O)N[C@H](C(=O)N[C@@H](CCC(=O)O)C(=O)N[C@@H](Cc1ccc(O)cc1)C(=O)N[C@@H](CCCCNC(=O)COCCOCCNC(=O)COCCOCCNC(=O)CC[C@H](NC(=O)CCCCCCCCCCCCCCCCC(=O)O)C(=O)O)C(=O)N[C@@H](CC(C)C)C(=O)N[C@@H](CCC(=O)O)C(=O)NCC(=O)NCC(=O)N1CCC[C@H]1C(=O)N[C@@H](CO)C(=O)N[C@@H](CO)C(=O)NCC(=O)N[C@@H](C)C(=O)N1CCC[C@H]1C(=O)N1CCC[C@H]1C(=O)N1CCC[C@H]1C(=O)N[C@@H](CO)C(N)=O)C(C)C [Example 103] (H-Y[Aib]EGTFISDYSI[αMeL]LD[Orn]IHQ[Aib]DFVEYK([AEEA-AEEA-γGlu-C18 diacid])LEGGPSSGAPPPS-NH2)
Ki (human GLP-1R): > 913 nM | Ki (human GcgR): > 960 nM

CC[C@H](C)[C@H](NC(=O)[C@H](CCCN)NC(=O)[C@H](CC(=O)O)NC(=O)[C@H](CC(C)C)NC(=O)[C@](C)(CC(C)C)NC(=O)[C@@H](NC(=O)[C@H](CO)NC(=O)[C@H](Cc1ccc(O)cc1)NC(=O)[C@H](CC(=O)O)NC(=O)[C@H](CO)NC(=O)[C@@H](NC(=O)[C@H](Cc1ccccc1)NC(=O)[C@@H](NC(=O)CNC(=O)[C@H](CCC(=O)O)NC(=O)C(C)(C)NC(=O)[C@@H](N)Cc1ccc(O)cc1)[C@@H](C)O)[C@@H](C)CC)[C@@H](C)CC)C(=O)N[C@@H](Cc1c[nH]cn1)C(=O)N[C@@H](CCC(N)=O)C(=O)NC(C)(C)C(=O)N[C@@H](CCC(=O)O)C(=O)N[C@@H](Cc1ccccc1)C(=O)N[C@H](C(=O)N[C@@H](CCC(=O)O)C(=O)N[C@@H](Cc1ccc(O)cc1)C(=O)N[C@@H](CCCCNC(=O)COCCOCCNC(=O)COCCOCCNC(=O)CC[C@H](NC(=O)CCCCCCCCCCCCCCCCCCC(=O)O)C(=O)O)C(=O)N[C@@H](CC(C)C)C(=O)N[C@@H](CCC(=O)O)C(=O)N[C@@H](C)C(=O)NCC(=O)N1CCC[C@H]1C(=O)N[C@@H](CO)C(=O)N[C@@H](CO)C(=O)NCC(=O)N[C@@H](C)C(=O)N1CCC[C@H]1C(=O)N1CCC[C@H]1C(=O)N1CCC[C@H]1C(=O)N[C@@H](CO)C(N)=O)C(C)C [Example 104] (H-Y[Aib]EGTFISDYSI[αMeL]LD[Orn]IHQ[Aib]EFVEYK([AEEA-AEEA-γGlu-C20 diacid])LEAGPSSGAPPPS-NH2)
Ki (human GLP-1R): > 910 nM | Ki (human GcgR): > 960 nM

CC[C@H](C)[C@H](NC(=O)[C@H](CCCN)NC(=O)[C@H](CC(=O)O)NC(=O)[C@H](CC(C)C)NC(=O)[C@](C)(CC(C)C)NC(=O)[C@@H](NC(=O)[C@H](CO)NC(=O)[C@H](Cc1ccc(O)cc1)NC(=O)[C@H](CC(=O)O)NC(=O)[C@H](CO)NC(=O)[C@@H](NC(=O)[C@H](Cc1ccccc1)NC(=O)[C@@H](NC(=O)CNC(=O)[C@H](CCC(=O)O)NC(=O)C(C)(C)NC(=O)[C@@H](N)Cc1ccc(O)cc1)[C@@H](C)O)[C@@H](C)CC)[C@@H](C)CC)C(=O)N[C@@H](Cc1c[nH]cn1)C(=O)N[C@@H](CCC(N)=O)C(=O)NC(C)(C)C(=O)N[C@@H](CCC(=O)O)C(=O)N[C@@H](Cc1ccccc1)C(=O)N[C@H](C(=O)N[C@@H](CCC(=O)O)C(=O)N[C@@H](Cc1ccc(O)cc1)C(=O)N[C@@H](CCCCNC(=O)COCCOCCNC(=O)COCCOCCNC(=O)CC[C@H](NC(=O)CCCCCCCCCCCCCCCCCCC(=O)O)C(=O)O)C(=O)N[C@@H](CC(C)C)C(=O)N[C@@H](CCC(=O)O)C(=O)N[C@H](C(=O)NCC(=O)N1CCC[C@H]1C(=O)N[C@@H](CO)C(=O)N[C@@H](CO)C(=O)NCC(=O)N[C@@H](C)C(=O)N1CCC[C@H]1C(=O)N1CCC[C@H]1C(=O)N1CCC[C@H]1C(=O)N[C@@H](CO)C(N)=O)[C@@H](C)O)C(C)C [Example 105] (H-Y[Aib]EGTFISDYSI[αMeL]LD[Orn]IHQ[Aib]EFVEYK([AEEA-AEEA-γGlu-C20 diacid])LETGPSSGAPPPS-NH2)
Ki (human GLP-1R): > 910 nM | Ki (human GcgR): > 960 nM

CC[C@H](C)[C@H](NC(=O)[C@H](CCCN)NC(=O)[C@H](CC(=O)O)NC(=O)[C@H](CC(C)C)NC(=O)[C@](C)(CC(C)C)NC(=O)[C@@H](NC(=O)[C@H](CO)NC(=O)[C@H](Cc1ccc(O)cc1)NC(=O)[C@H](CC(=O)O)NC(=O)[C@H](CO)NC(=O)[C@@H](NC(=O)[C@H](Cc1ccccc1)NC(=O)[C@@H](NC(=O)CNC(=O)[C@H](CCC(=O)O)NC(=O)C(C)(C)NC(=O)[C@@H](N)Cc1ccc(O)cc1)[C@@H](C)O)[C@@H](C)CC)[C@@H](C)CC)C(=O)N[C@@H](Cc1c[nH]cn1)C(=O)N[C@@H](CCC(N)=O)C(=O)NC(C)(C)C(=O)N[C@@H](CCC(=O)O)C(=O)N[C@@H](Cc1ccccc1)C(=O)N[C@H](C(=O)N[C@@H](CCC(=O)O)C(=O)N[C@@H](Cc1ccc(O)cc1)C(=O)N[C@@H](CCCCNC(=O)COCCOCCNC(=O)COCCOCCNC(=O)CC[C@H](NC(=O)CCCCCCCCCCCCCCCCCCC(=O)O)C(=O)O)C(=O)N[C@@H](CC(C)C)C(=O)N[C@@H](CCC(=O)O)C(=O)N[C@@H](CCC(N)=O)C(=O)NCC(=O)N1CCC[C@H]1C(=O)N[C@@H](CO)C(=O)N[C@@H](CO)C(=O)NCC(=O)N[C@@H](C)C(=O)N1CCC[C@H]1C(=O)N1CCC[C@H]1C(=O)N1CCC[C@H]1C(=O)N[C@@H](CO)C(N)=O)C(C)C [Example 106] (H-Y[Aib]EGTFISDYSI[αMeL]LD[Orn]IHQ[Aib]EFVEYK([AEEA-AEEA-γGlu-C20 diacid])LEQGPSSGAPPPS-NH2)
Ki (human GLP-1R): > 910 nM | Ki (human GcgR): 304 nM
